According to patent publication US8877739B2, “Prophylactic agent or therapeutic agent for diabetes or obesity” (Ajinomoto Co., Inc., priority 2010, dated 2014):
Each block holds one compound with its values, some of them ahead of it.

Key:
Assay type in all cases: cell-based
[1] = system: Human cecum-derived cell line NCI-H716; assay: GLP-1 secretion promoting activity in NCI-H716 cells; conditions: 37° C., 60 minutes
Procedure: Human cecum-derived cell line NCI-H716 (ATCC No. CCL-251) was cultured in 10% FBS-containing DMEM/Ham's F-12 medium at 37° C. in the presence of 5% CO2. The NCI-H716 cells were plated on a poly-D-lysine-coated 96-well plate in 100,000 cells/well, followed by culturing for 2 days. Prior to the addition of a sample, the wells were washed with Hepes buffer (20 mM Hepes, 146 mM NaCl, 5 mM KCl, 1.5 mM CaCl2, 1 mM MgSO4, 5.5 mM D-glucose, 0.2% BSA, pH 7.4). Then, 50 μl of a solution of the sample in the same buffer, and incubation was performed at 37° C. for 60 minutes. Compounds No. 1 (20 mM), No. 7 (20 mM), No. 21 (20 mM), No. 22 (20 mM), No. 33 (7.5 mM) and No. 34 (7.5 mM) listed in TABLE 1 were used as the sample. As for control, Hepes buffer was used. After the supernatant was collected, the cells were precipitated by centrifugation (5000×g, 1 minute) and the supernatant was recovered. The GLP-1 concentration in the supernatant was measured as follows by the method for GLP-1 quantification using the GLP-1 receptor gene expression cells.
Human GLP-1 receptor gene (SEQ ID NO: 1) was incorporated into pcDNA3.1 in a conventional manner (López de Maturana R, Willshaw A, Kuntzsch A, Rudolph R, Donnelly D. J. Biol. Chem. 2003 Mar. 21; 278 (12): 10195-200.) to construct human GLP-1 receptor gene expression plasmid hGLP-1R/pcDNA3.1. Also, the chimeric gene (SEQ ID NO: 2) of human Gα15 gene and human gustducin gene was incorporated into pcDNA3.1 to construct G-protein expression plasmid Gα15-gust/pcDNA3.1. Using a transfection reagent FuGene 6 (Roche Japan, Inc.), hGLP-1R/pcDNA3.1 and Gα15-gust44/pcDNA3.1 were cotransfected to HEK293E cells (ATCC No. CRL-10852). After incubation in a CO2 incubator for 4 to 6 hours, the cells were suspended in 5% FBS-containing DMEM/Ham F12 and plated onto a poly-D-lysine-coated 96-well plate in 70,000 cells/well. After incubation for 24 hours in a CO2 incubator, changes in fluorescence intensity were begun to monitor immediately after the addition of a sample, using a FlexStation (Molecular Devices) according to the Ca^2+ fluorescence indicator FLIPR Calcium 4 Assay Kit protocol (Molecular Devices). Concentration dependence in response to changes in fluorescence intensity of human GLP-1 (7-36 amide; Peptide Institute, Inc.) was determined and used as a standard curve for quantitative determination of the sample. The expression plasmid used here may be constructed by the methods described in, e.g., Proc. Natl. Acad. Sci. USA. 1992 Sep. 15; 89 (18): 8641-5, FEBS Letters Volume 373, Issue 29, October 1995, Pages 182-186), The Journal of Neuroscience, Aug. 13, 2003, 23 (19): 7376-7380), etc.
The amount of GLP-1 secreted when the measurement value of control obtained using the buffer was made 1 was expressed as a relative value.

[2] = system: Human cecum-derived cell line NCI-H716; assay: CCK secretion promoting activity in NCI-H716 cells; conditions: 37° C., 30 minutes
Procedure: Human cecum-derived cell line NCI-H716 (ATCC No. CCL-251) was cultured in DMEM/Ham's F-12 medium containing 10% FBS at 37° C. in the presence of 5% CO2. The NCI-H716 cells were plated on a poly-L-lysine-coated 24-well plate in 600,000 cells/well, followed by culturing for 2 days. Prior to the addition of a sample, the wells were washed with Hepes buffer (20 mM Hepes, 146 mM NaCl, 5 mM KCl, 1.5 mM CaCl2, 1 mM MgSO4, 5.5 mM D-glucose, 0.02% BSA, pH 7.4). Then, 300 μl of a solution of the sample in the same buffer, and incubation was performed at 37° C. for 30 minutes. Compounds No. 1 (20 mM) No. 7 (2 mM), No. 21 (2 mM), No. 22 (2 mM), No. 33 (0.1 mM) and No. 34 (1 mM) listed in TABLE 2 were used as the sample. For control, Hepes buffer was used. After the supernatant was collected, the cells were precipitated by centrifugation (5000×g, 1 minute). The supernatant was recovered and lyophilized in a Speed Vac Concentrator from Savant Instruments Inc., and 60 μl of water was added thereto for dissolution. The CCK concentration in the solution was determined using an Enzyme Immunoassay Kit (EK-069-04; PHOENIX PHARMACEUTICALS).
The amount of CCK secreted when the measurement value of control obtained using the buffer was made 1 was expressed as a relative value.

[3] = target: T1, human CaSR (Homo sapiens, UniProt P41180); assay: Evaluation of CaSR agonist activity (Ca2+ fluorescence, FLIPR, 293E cells transfected with hCaSR/pcDNA3.1)
T1 construct: expressed in transfected cells; host or cells: 293E cells (HEK293 cells expressing EBNA1, ATCC No. CRL-10852), transient transfection
T1 sequence (P41180 20-1078): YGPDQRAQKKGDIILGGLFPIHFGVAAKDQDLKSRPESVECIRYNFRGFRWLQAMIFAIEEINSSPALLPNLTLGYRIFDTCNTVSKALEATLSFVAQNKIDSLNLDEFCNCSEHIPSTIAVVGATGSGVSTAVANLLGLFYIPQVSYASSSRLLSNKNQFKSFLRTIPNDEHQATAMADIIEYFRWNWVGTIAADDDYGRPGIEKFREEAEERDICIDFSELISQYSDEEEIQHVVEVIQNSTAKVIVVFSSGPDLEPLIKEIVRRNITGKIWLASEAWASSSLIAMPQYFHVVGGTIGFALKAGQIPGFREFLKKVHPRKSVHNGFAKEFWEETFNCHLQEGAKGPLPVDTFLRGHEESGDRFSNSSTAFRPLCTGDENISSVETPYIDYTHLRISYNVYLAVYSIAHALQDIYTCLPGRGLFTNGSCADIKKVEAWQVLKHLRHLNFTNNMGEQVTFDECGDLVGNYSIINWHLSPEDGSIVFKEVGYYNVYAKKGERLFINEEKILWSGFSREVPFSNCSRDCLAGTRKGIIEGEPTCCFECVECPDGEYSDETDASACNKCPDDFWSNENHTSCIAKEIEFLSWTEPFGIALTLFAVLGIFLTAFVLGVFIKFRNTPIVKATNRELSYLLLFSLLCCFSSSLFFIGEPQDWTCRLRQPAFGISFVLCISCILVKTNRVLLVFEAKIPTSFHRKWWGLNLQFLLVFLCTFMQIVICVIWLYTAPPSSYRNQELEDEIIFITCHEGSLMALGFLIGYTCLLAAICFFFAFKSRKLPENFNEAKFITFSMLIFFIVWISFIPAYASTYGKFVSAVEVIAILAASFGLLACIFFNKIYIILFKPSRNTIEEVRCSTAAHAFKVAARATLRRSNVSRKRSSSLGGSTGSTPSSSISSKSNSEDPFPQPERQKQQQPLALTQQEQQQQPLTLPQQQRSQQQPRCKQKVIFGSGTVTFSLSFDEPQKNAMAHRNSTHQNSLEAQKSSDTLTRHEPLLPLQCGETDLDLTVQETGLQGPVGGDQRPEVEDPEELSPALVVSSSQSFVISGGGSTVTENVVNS
Procedure: The CaSR gene was prepared in accordance with the method described in Example 1 of WO 07/55393. Using the recombinant plasmid obtained, human CaSR expression plasmid hCaSR/pcDNA3.1 was prepared.
293E cells (HEK293 cells expressing EBNA1, ATCC No. CRL-10852) were cultured in DMEM (Dulbecco's Modified Eagle's Medium containing […], NACALAI TESQUE, INC.) containing 10% fetal calf serum, in the presence of 250 μg/ml of G418. The cells were spread on a Petri dish of 10 cm diameter in 1.8×10^6 cells/15 ml. After the cells were allowed to stand in a CO2 incubator (5% CO2, 37° C.) for 24 hours, human CaSR expression plasmid hCaSR/pcDNA3.1 was transfected with a transfection reagent Mirus TransIT 293 (Takara Bio Inc.). After the cells were allowed to stand in the CO2 incubator for 24 hours, the cells were collected by DMEM containing 10% fetal calf serum and plated on a poly-D-lysine coated 384 well plate (Falcon) in 15,000 cells/well. After the cells were allowed to stand in the CO2 incubator for 24 hours, the medium was removed. Then, 50 μL/well of Ca^2+ fluorescence indicator Calcium 4 Assay Kit (Molecular Devices) that was dissolved in an assay buffer (146 mM NaCl, 5 mM KCl, 1 mM MgSO4, 1 mg/ml glucose, 20 mM HEPES (pH 7.2) and 1.5 mM CaCl2) was added thereto, and allowed to stand at 37° C. for an hour and then at room temperature for 30 minutes to load the fluorescence indicator. The 384 well plate described above was transferred to FLIPR (Molecular Devices), and 12.5 μL/well of a compound that was dissolved in a 0.1% BSA containing-assay buffer was added thereto. Changes in fluorescence intensity were monitored for 3 minutes. Compound No. 20 was purchased from Bachem.

[4] = 293E cells expressing human CaSR, 1.5 mM CaCl2 assay buffer, Table 5
[5] = measured in a manner similar to Example III, Table 6

Structure (SMILES): N[C@@H](CCC(=O)Nc1cccc(S(=O)(=O)O)c1)C(=O)O [Compound 1, N^5-(3-sulfophenyl)-L-glutamine]
- Relative Value (amount of GLP-1 secreted, buffer control = 1) ([1]; sample 20 mM): 1.82
- Relative Value (amount of CCK secreted, buffer control = 1) ([2]; sample 20 mM): 2.16

Structure (SMILES): N[C@@H](CCC(=O)Nc1cc(Cl)cc(S(=O)(=O)O)c1O)C(=O)O [Compound 7, N^5-(5-chloro-2-hydroxy-3-sulfophenyl)-L-glutamine]
- Relative Value (amount of GLP-1 secreted, buffer control = 1) ([1]; sample 20 mM): 2.90
- Relative Value (amount of CCK secreted, buffer control = 1) ([2]; sample 2 mM): 1.99

Structure (SMILES): Cc1c(Cl)cc(NC(=O)CC[C@H](N)C(=O)O)cc1S(=O)(=O)O [Compound 21, N^5-(3-chloro-4-methyl-5-sulfophenyl)-L-glutamine]
- Relative Value (amount of GLP-1 secreted, buffer control = 1) ([1]; sample 20 mM): 4.38
- Relative Value (amount of CCK secreted, buffer control = 1) ([2]; sample 2 mM): 4.54

Structure (SMILES): Cc1c(Cl)cc(S(=O)(=O)O)cc1NC(=O)CC[C@H](N)C(=O)O [Compound 22, N^5-(3-chloro-2-methyl-5-sulfophenyl)-L-glutamine]
- Relative Value (amount of GLP-1 secreted, buffer control = 1) ([1]; sample 20 mM): 2.22
- Relative Value (amount of CCK secreted, buffer control = 1) ([2]; sample 2 mM): 2.49

Structure (SMILES): Cc1c(Cl)cc(NC(=O)OC[C@H](N)C(=O)O)cc1S(=O)(=O)O [Compound 33, O-{[(3-chloro-4-methyl-5-sulfophenyl)amino]carbonyl}-L-serine]
- Relative Value (amount of GLP-1 secreted, buffer control = 1) ([1]; sample 7.5 mM): 1.87
- Relative Value (amount of CCK secreted, buffer control = 1) ([2]; sample 0.1 mM): 1.51

Structure (SMILES): N[C@@H](COC(=O)Nc1cc(Cl)cc(S(=O)(=O)O)c1O)C(=O)O [Compound 34]
- Relative Value (amount of GLP-1 secreted, buffer control = 1) ([1]; sample 7.5 mM): 2.88
- Relative Value (amount of CCK secreted, buffer control = 1) ([2]; sample 1 mM): 1.77

- EC50 [3, 4]: 0.031 µM
Structure (SMILES): N[C@@H](CCC(=O)N(O)c1cccc(S(=O)(=O)O)c1)C(=O)O [Compound 42, N^5-hydroxy-N^5-(3-sulfophenyl)-L-glutamine]

- EC50 [3, 4]: 0.043 µM
Structure (SMILES): N[C@@H](COC(=O)N(O)c1cccc(S(=O)(=O)O)c1)C(=O)O [Compound 43, 0-{[hydroxy(3-sulfophenyl)amino]carbonyl}-L-serine]

- EC50 [3, 5]: 0.023 µM
Structure (SMILES): COC(=O)[C@@H](N)CCC(=O)Nc1cccc(S(=O)(=O)O)c1 [Compound 44, 3-[(4S)-4-amino-5-methoxy-5-oxopentanamido]benzene-1-sulfonic acid]

- EC50 [3, 5]: 0.11 µM
Structure (SMILES): COC(=O)[C@@H](N)COC(=O)Nc1cc(Cl)c(C)c(S(=O)(=O)O)c1 [Compound 49, 5-({[(2S)-2-amino-3-methoxy-3-oxopropoxy]carbonyl}amino)-3-chloro-2-methylbenzene-1-sulfonic acid]

- EC50 [3, 5]: 0.004 µM
Structure (SMILES): CCOC(=O)[C@@H](N)CCC(=O)Nc1cc(Cl)cc(S(=O)(=O)O)c1O [Compound 50, 3-[(4S)-4-amino-5-ethoxy-5-oxopentanamido]-5-chloro-2-hydroxybenzene-1-sulfonic acid]
